Each structure is given as a SMILES string.

These results are taken from the supplement of paper PMC8837787.

This assay relates to Saccharomyces cerevisiae ABC16-Green Monster. Nature of the assay: growth inhibition at single dose (up to 150 µM), below the 70% cut-off for dose-response; higher = more potent. The settings on record: 18 h; 30 °C; YPD. Summed up: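 Values are percent growth inhibition of drug-sensitive S. cerevisiae ABC16-Green Monster cells. Cells grown overnight in YPD at 30 °C were diluted to log phase (OD600 0.1–0.2), and each library compound was added at a single dose of 150 µM to 200 µl culture per well in 96-well plates, in biological duplicates, beside untreated cultures. OD600 was read at 0 h and after 18 h at 30 °C, and compounds under 70% in both replicates were not taken to dose-response.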

As to `CCC(c1ccccc1)c1nn2c(-c3cccs3)nnc2s1` (configuration not stated), the “growth inhibition at single dose” value is under 70%.

With `CC1CN(C(=O)c2sc3ccccc3c2Cl)CC(C)O1` (configuration not stated), the “growth inhibition at single dose” value is under 70%.

For the molecule `O=C(Nc1ccc(N2CCCC2)cn1)C1CC=CCC1` (configuration not stated), the “growth inhibition at single dose” value is under 70%.

Consider `Cc1cccc(Nc2nc(N)c3ccccc3n2)c1`, for which the “growth inhibition at single dose” value was under 70%.

Turning to `COc1cc(C2=NCCN2)ccc1-c1cn(-c2cccc(C3=NCCN3)c2)nn1`, the “growth inhibition at single dose” value is under 70%.

As to `CCOc1ccc(-n2cc(-c3ccccc3)c3c(SCc4cc(C)ccc4C)ncnc32)cc1`, the “growth inhibition at single dose” value was under 70%.

As for `COc1ccc(N(Cc2nc(-c3cccs3)oc2C)S(=O)(=O)c2cccs2)cc1`, the “growth inhibition at single dose” value was under 70%.

Take `O=C(Nc1ccccc1O)c1ccc(-c2ccc(Cl)cc2Cl)o1`: the “growth inhibition at single dose” value is under 70%.

Take `O=C(Nc1nnc(-c2ccc(Cl)s2)o1)c1ccc(Cl)s1`: the “growth inhibition at single dose” value is under 70%.

Turning to `Cc1ccc2ncnc(NCCc3ccccc3)c2c1`, the “growth inhibition at single dose” value was under 70%.

Regarding `O=c1nc(C=Cc2ccc(Br)cc2)oc2ccccc12`, the “growth inhibition at single dose” value is under 70%.

In the case of `N#C/C(=N\Nc1cc(C(F)(F)F)ccc1OCC(F)(F)F)S(=O)(=O)c1ccccc1`, the “growth inhibition at single dose” value was under 70%.

`N#Cc1nc(-c2ccccc2F)oc1NCCc1ccccc1`: the “growth inhibition at single dose” value was under 70%.

Regarding `O=S(=O)(NC1CCN(c2nn3cc(-c4ccccc4)nc3s2)CC1)c1cccs1`, the “growth inhibition at single dose” value was under 70%.

As to `Cc1cc(C)n(-c2nc(-c3ccccc3)cc(N3CCOCC3)n2)n1`, the “growth inhibition at single dose” value is under 70%.

Turning to `CC(=O)Nc1nnc(SCc2c(C)cc(C(C)(C)C)cc2C)s1`, the “growth inhibition at single dose” value is under 70%.

On to `N#CCN(CCCCN1CCN(c2ccc(F)cc2)CC1)C(=O)OCc1ccccc1`, for which the “growth inhibition at single dose” value was under 70%.

Turning to `Cc1cc(C)c2cc(C(=O)Nc3ccc(N4CCN(C)CC4)nc3)[nH]c2c1`, the “growth inhibition at single dose” value is under 70%.

On to `CC(Nc1ncnc2sccc12)c1ccc(F)cc1` (configuration not stated), for which the “growth inhibition at single dose” value was under 70%.

Consider `OCC1CCCN(c2nn3cc(-c4ccccc4)nc3s2)C1` (configuration not stated), for which the “growth inhibition at single dose” value was under 70%.

As for `CCCCN(CCCC)S(=O)(=O)c1ccc(NC(=O)c2ccco2)cc1`, the “growth inhibition at single dose” value is under 70%.

For `O=C(NC1CC1)c1ccc(CN(Cc2ccco2)Cc2nc(-c3ccc(F)cc3)no2)cc1`, the “growth inhibition at single dose” value was under 70%.

For the molecule `CCOC(=O)c1cn(CC)c2cc(N3CCCCC3)c(F)cc2c1=O`, the “growth inhibition at single dose” value was under 70%.

Take `O=C(c1cc2ccccc2o1)N1CCN(Cc2ccc3c(c2)OCO3)CC1`: the “growth inhibition at single dose” value was under 70%.

Turning to `OC1CCCCC1C1(NC(=S)Nc2ccccc2)CCCCC1` (configuration not stated), the “growth inhibition at single dose” value was under 70%.

On to `COc1ccc(N(CCCN2C(=O)c3cccc4cccc(c34)C2=O)C(=O)c2ccccc2Cl)cc1`, for which the “growth inhibition at single dose” value is under 70%.

Take `O=C(Nc1ccccc1)c1cn(-c2ccc3c(c2)OCCO3)nn1`: the “growth inhibition at single dose” value is under 70%.

Take `CN1CCN(c2nccc3nc(-c4ccc(F)c(F)c4)[nH]c23)CC1`: the “growth inhibition at single dose” value is under 70%.

For `CCc1ccc(S(=O)(=O)Nc2cc(CN3CCN(CCC(C)C)CC3)ccc2C)cc1`, the “growth inhibition at single dose” value is under 70%.

Consider `Cc1cc(NC(=O)C2c3ccccc3C(=O)N(CC(C)C)C2c2cccs2)no1` (configuration not stated), for which the “growth inhibition at single dose” value is under 70%.

With `CCN(CC(=O)Nc1ccccc1-c1ccccc1)Cc1nc(=O)c2ccccc2[nH]1`, the “growth inhibition at single dose” value was under 70%.

In the case of `CCOC(=O)c1cc(-c2csc(Nc3c(C)cc(C)cc3C)n2)on1`, the “growth inhibition at single dose” value was under 70%.

Consider `O=C(Nc1ccc2c(c1)OC1(CCCCC1)O2)c1ccc[nH]c1=S`, for which the “growth inhibition at single dose” value is under 70%.

For the molecule `COc1ccc2nccc(NC(=O)C3CCN(CCc4ccc(Cl)cc4)CC3)c2n1`, the “growth inhibition at single dose” value is under 70%.

With `O=C(Nc1ccc([N+](=O)[O-])cc1)Nc1cccnc1Cl`, the “growth inhibition at single dose” value was under 70%.

Regarding `N#Cc1nc(Cc2cccc3ccccc23)oc1N1CCN(C(c2ccccc2)c2ccccc2)CC1`, the “growth inhibition at single dose” value is under 70%.

For `C/N=c1\scc(-c2ccccc2OC)n1/N=C/c1ccc[nH]1`, the “growth inhibition at single dose” value is under 70%.

With `O=C(CCc1ccco1)NC1CCN(CC2(c3ccc(Cl)cc3)CCC2)CC1`, the “growth inhibition at single dose” value was under 70%.

Consider `COc1cc2ncnc(NC3CCN(Cc4ccccc4)CC3)c2cc1OC`, for which the “growth inhibition at single dose” value was under 70%.

`COc1ccc(N2CCN(C(CNC(=O)CC(C)(C)C)c3ccc4c(c3)OCO4)CC2)cc1` (configuration not stated): the “growth inhibition at single dose” value is under 70%.

Regarding `CN(C)Cc1nc(=O)c2c([nH]1)-c1ccccc1CC2(C)C`, the “growth inhibition at single dose” value is under 70%.

`COc1ccc(Nc2cc(C)nc(-n3nc(C)cc3C)n2)cc1`: the “growth inhibition at single dose” value is under 70%.

Regarding `Cc1ccccc1C(=O)N1N=C(Nc2ccccc2)SC1(C)C`, the “growth inhibition at single dose” value was under 70%.

With `Nc1c(C(=O)c2ccc3c(c2)NC(=O)CO3)sc2c1c(=O)[nH]c(=O)n2Cc1ccccc1`, the “growth inhibition at single dose” value was under 70%.

As for `O=C(CSc1nnc(C2CC2)o1)NCCC1=CCCCC1`, the “growth inhibition at single dose” value was under 70%.

On to `N#CC(C(=O)c1cc(S(=O)(=O)N2CCc3ccccc3C2)ccc1Cl)c1ccccn1` (configuration not stated), for which the “growth inhibition at single dose” value is under 70%.

Take `O=C(COc1ccc(Oc2ccccc2)cc1)NCc1cn2ccccc2n1`: the “growth inhibition at single dose” value was under 70%.

For `Cc1ccc(C(=O)COC(=O)Cc2n[nH]c(=O)c3ccccc23)s1`, the “growth inhibition at single dose” value is under 70%.

For the molecule `FC(F)(F)c1ccc(NCCNc2ccc(C(F)(F)F)cn2)nc1`, the “growth inhibition at single dose” value was under 70%.

`Cc1nn2c(=O)c(Cc3ccccc3)c(C)[nH]c2c1-c1ccc(F)cc1`: the “growth inhibition at single dose” value is under 70%.

Consider `O=C(NC1CCN(c2ccc(S(=O)(=O)C(F)(F)F)cc2)CC1)C1CC1`, for which the “growth inhibition at single dose” value was under 70%.

For the molecule `COc1ccc(NC(=O)C2c3ccccc3C(=O)N(CC(C)C)C2c2cccs2)cc1Cl` (configuration not stated), the “growth inhibition at single dose” value is under 70%.

Regarding `O=C1O[C@@H](COc2ccon2)CN1c1cc(F)c(C2=CCN(Cc3ccccc3)CC2)c(F)c1`, the “growth inhibition at single dose” value is under 70%.

As to `CC1CC(NC(=O)c2cc3c(=O)n4ccccc4nc3n2C)CC(C)(C)C1` (configuration not stated), the “growth inhibition at single dose” value was under 70%.

Consider `COc1ccc(-c2nnc(SC(C)C(=O)NCCC3=CCCCC3)[nH]2)cc1` (configuration not stated), for which the “growth inhibition at single dose” value was under 70%.

Take `c1ccc2c(NCc3ccc(N4CCCC4)nc3)ncnc2c1`: the “growth inhibition at single dose” value was under 70%.

As to `CC(C)(C)NS(=O)(=O)c1cccc2c(N)cccc12`, the “growth inhibition at single dose” value is under 70%.

As to `Cc1nc(NCCNc2cnccn2)c2c(-c3cccs3)csc2n1`, the “growth inhibition at single dose” value is under 70%.

Turning to `Cc1cc(C(=O)COC(=O)c2ccccc2O)c(C)n1CC1CCCO1` (configuration not stated), the “growth inhibition at single dose” value is under 70%.

Take `Cc1c(C)n(CCCO)c2ncn3nc(-c4ccccc4O)nc3c12`: the “growth inhibition at single dose” value was under 70%.

On to `CCOC(=O)c1[nH]c(C)c(C(=O)OCC(=O)Nc2ccc(Cl)cn2)c1C`, for which the “growth inhibition at single dose” value is under 70%.

`COc1cccc(OCC(=O)c2ccc(Br)cc2)c1`: the “growth inhibition at single dose” value was under 70%.

As to `CC(C)(C)c1ccc(Oc2ccc(N)cc2)cc1`, the “growth inhibition at single dose” value was under 70%.

Regarding `Cc1ccccc1CN1CCC(O)(c2ccc(Cl)c(C(F)(F)F)c2)CC1`, the “growth inhibition at single dose” value was under 70%.

For the molecule `COc1ccc(CN2CCCC(C(=O)c3ccc(C(F)(F)F)cc3)C2)c(O)c1` (configuration not stated), the “growth inhibition at single dose” value is under 70%.

With `COc1ccccc1C(=O)ON=C(N)Cc1cccc2ccccc12`, the “growth inhibition at single dose” value is under 70%.

Take `CS(=O)(=O)N1CCC(CCn2nc(Cc3cccc4ccccc34)c3c(N)ncnc32)CC1`: the “growth inhibition at single dose” value was under 70%.

Turning to `Nc1nc(Nc2cccc(F)c2)nc2ccccc12`, the “growth inhibition at single dose” value is under 70%.

Consider `Cc1cccc(NC(=O)CN2C(=O)/C(=C(/C#N)c3nc4ccccc4[nH]3)c3ccccc32)c1`, for which the “growth inhibition at single dose” value is under 70%.

For `Nc1ccn(C2O[C@H](CO)[C@@H](O)[C@H]2O)c(=O)n1` (some centres not stated), the “growth inhibition at single dose” value was under 70%.

On to `Cc1cc(Cl)c(S(=O)(=O)N2CCCC2)cc1OCC(=O)NC1CCCCC1`, for which the “growth inhibition at single dose” value was under 70%.

As to `CO[C@H]1/C=C/O[C@@]2(C)Oc3c(C)c(O)c4c(O)c(/c(=C/NN5CCN(C)CC5)c(O)c4c3C2=O)=N\C(=O)/C(C)=C\C=C/[C@H](C)[C@H](O)[C@@H](C)[C@@H](O)[C@@H](C)[C@H](OC(C)=O)[C@@H]1C`, the “growth inhibition at single dose” value is under 70%.

Regarding `CCc1ccc(C(=O)Nc2cccc(NC(=O)c3ccccc3C)c2)cc1`, the “growth inhibition at single dose” value was under 70%.

For the molecule `COc1ccc(-c2nonc2NC(=O)c2cccc(Cl)c2)cc1OC`, the “growth inhibition at single dose” value was under 70%.

In the case of `CNC(=O)C1Cc2ccccc2N1C(=O)Cc1ccc(F)cc1` (configuration not stated), the “growth inhibition at single dose” value was under 70%.

For `O=C(Nc1ncc(Cc2ccc(Br)cc2)s1)c1ccc2n[nH]nc2c1`, the “growth inhibition at single dose” value was under 70%.

Regarding `Cc1cc(C)n2ncc(C(=O)Nc3cccc(/C=C/c4ccccn4)c3)c2n1`, the “growth inhibition at single dose” value is under 70%.

As for `CNc1nnc(Sc2cnn(-c3ccccc3)c(=O)c2Cl)s1`, the “growth inhibition at single dose” value is under 70%.

In the case of `CNC(=O)c1ccc2n1CCN(C(=O)OCc1ccccc1)C2C` (configuration not stated), the “growth inhibition at single dose” value was under 70%.

Regarding `CC(O)(c1ccc(Cl)cc1)C(CN1CCCCC1)c1ccccc1` (configuration not stated), the “growth inhibition at single dose” value was under 70%.

For the molecule `CNc1snc(C)c1C(=O)Nc1ccc(OC)c(Cc2ccccc2)c1`, the “growth inhibition at single dose” value is under 70%.

As to `CC(C)c1nc2cc(NC(=O)CSc3nnnn3C3CC3)ccc2o1`, the “growth inhibition at single dose” value was under 70%.
